Source: patent publication US20250332249A1, “CYTOM[…] CELL EPITOPES AND USES THEREOF” (LA JOLLA INSTITUTE FOR IMMUNOLOGY, priority 2021, published 2025)
Where no end group is shown, it is not given here.

System: PBMCs from HCMV seropositive subjects
Experiment: ex vivo IFN-γ Fluorospot assay
Type: cell-based, human
Conditions: 19 HCMV seropositive subjects, individual peptide 10 ug/ml, 20 hr; for No. of subjects responding: IFN-γ; for Magnitude of response: IFN-γ spots (FIG. 1: SFC/10^6 PBMC; no unit in table)
Description: To define the targets of HCMV-specific T cell epitopes recognized in healthy adults, the inventors screened PBMCs of 19 subjects, 10 males and 9 females, recruited from San Diego blood bank (SDBB). The HCMV seropositivity of all the subjects was confirmed by IgG ELISA (FIG. 6A). A total of 2593 HCMV peptides covering a total of 563 ORFs (1) were tested. However, as many of these predicted ORFs overlapped 100% with others, as they were internal to longer ORFs, these 563 contained 359 completely unique ORFs composed of ˜150“canonical” ORFs, and an additional ˜200 identified by ribosomal RNA profiling (1). These peptides corresponded to predicted dominant epitopes, based on a bioinformatic method that predicts promiscuous binding to HLA class II molecules (40). Each of the ORFs above was covered by multiple predicted epitopes (with a minimum of at least 2), with the exception of very small ORFs (less than 15-20 amino acid residues), in which case at least one peptide was synthetized. The 2593 peptides were arranged in 89 pools of 28-30 15-mer peptides. PBMC reactivity of each of the 89 pools was assayed directly ex vivo using an IFN-γ Fluorospot assay.
For the initial CMV ORF screen, the responses of 19 CMV-seropositive subjects were evaluated. PBMCs were stimulated with 89 pools covering 563 ORFs of HCMV. Each pool comprised of 28-30 15-mer peptides overlapping by 10 residues. PBMCs that were found reactive to a pool were further tested against individual peptides contained in the pool using IFN-γ Fluorospot assay.
PBMC were thawed, washed and counted for viability using the trypan blue exclusion method. 200,000 cells were plated in triplicates and stimulated with pools (2 ug/ml) or peptides (10 ug/ml), PHA (10 ug/ml) or medium containing equivalent amount of DMSO in 96-well plates (Immubilion-P, Millipore) previously coated with anti IFN-γ antibody (1-DIK, Mabtech, Stockholm, Sweden). After 20 hr incubation at 37° C., cells were discarded and wells were washed six times with PBS/0.05% Tween 20 using an automated plate washer and further incubated with IFN-γ antibody (7-B6-1-FS-BAM) for 2 hrs at room temperature. After incubation, wells were washed and incubated with fluorophore conjugated anti-BAM-490 antibody for 1 hr at room temperature. Finally, the plates were washed and incubated with fluorescence enhancer for 15 min, blotted dry and fluorescent spots were counted by computer assisted image analysis (IRIS Fluorospot reader, Mabtech, Sweden).
Each pool or peptide was considered positive compared to the background that had equivalent amount of DMSO based on the following criteria: (i) 20 or more spot forming cells (SFC) per 10^6 PBMC after background subtraction, (ii) the stimulation index greater than 2, and (iii) p<0.05 by student's t test or Poisson distribution test

Substance	No. of subjects responding	Magnitude of response
70 (YQKVLTFRRSYAYIH) [compound 70]	1	40
71 (RRSYAYIHTTYLLGS) [compound 71]	5	2730
72 (QLMPDDYSNTHSTRY) [compound 72]	5	45517
73 (NLNCMVTITTARSKY) [compound 73]	2	4810
74 (NADKFFIFPNYTIVS) [compound 74]	4	5120
75 (GLVVFWQGIKQKSLV) [compound 75]	1	53
76 (QLQFTYDTLRGYINR) [compound 76]	3	2236
77 (LRGYINRALAQIAEA) [compound 77]	3	30337
78 (KELSKINPSAILSAI) [compound 78]	3	18557
79 (AILSAIYNKPIAARF) [compound 79]	5	11264
80 (ASCVTINQTSVKVLR) [compound 80]	5	8941
81 (YLFKRMIDLSSISTV) [compound 81]	1	67
84 (QILWTDGLARRTRDR) [compound 84]	1	37
85 (RVGITIQQLNVYHQL) [compound 85]	1	963
86 (TMRSVFEMQRIRHGA) [compound 86]	1	67
87 (NIFLVGFYLLVPYLG) [compound 87]	1	1633
88 (SLLILVVLLLIYRCC) [compound 88]	1	23
89 (LSYMKYHHLHGLPVN) [compound 89]	3	879
90 (VELCLGAGAGHVVVV) [compound 90]	1	383
91 (RSSWRASCVEVPKKP) [compound 91]	1	370
92 (MQKYFSLDNFLHDYV) [compound 92]	2	20343
93 (QTIYFLGLTALLLRY) [compound 93]	1	583

Substance	No. of subjects responding	Magnitude of response
94 (SFYLVNAMSRNLFRV) [compound 94]	1	43
95 (TMRKLKRKQALVKEQ) [compound 95]	1	1563
96 (TAVSEFMKNTHVLIR) [compound 96]	1	747
98 (IKMWFLLGAPMIAVL) [compound 98]	3	2867
99 (LFIIAFFSREPTKDL) [compound 99]	1	190
100 (PKSFTLTRIHPEYIV) [compound 100]	2	340
101 (PEYIVQIQNAFETNQ) [compound 101]	4	527
102 (GALTLVIPSWHVFAS) [compound 102]	2	190
103 (CRSATSLVGNTNADV) [compound 103]	1	30
104 (SSCAHTTCRSATSLV) [compound 104]	2	104
105 (SWLGQMLRPVGLCTL) [compound 105]	1	43
114 (GILARNLVPMVATVQ) [compound 114]	11	34633
116 (RVTGLVFSVVFSVSL) [compound 116]	4	6380
117 (LTWCVIADRQPRFSV) [compound 117]	3	240
118 (RPKRRVVAPFRVAAA; ends and bridges not checked) [compound 118]	2	283
119 (APFRVAAAGETPLGR; ends and bridges not checked) [compound 119]	6	1089
131 (PFTVLRLSYAYRIFA; ends and bridges not checked) [compound 131]	1	33
132 (AREFLLSHDAALFRA; ends and bridges not checked) [compound 132]	1	23
133 (MLIQQYVLSQYYIKK; ends and bridges not checked) [compound 133]	1	20
134 (RLGTAATQIQKQTLY; ends and bridges not checked) [compound 134]	1	30
135 (KTQIFNKLFTNRISV; ends and bridges not checked) [compound 135]	1	1587
136 (VRSLAVDAQHAAKRV; ends and bridges not checked) [compound 136]	1	53

Substance	No. of subjects responding	Magnitude of response
137 (LEERDEWVRSLAVDA) [compound 137]	1	47
138 (AAITVVPVITQSRLA) [compound 138]	3	450
139 (PWYPITQARTLELTP) [compound 139]	2	996
140 (MSTKRSTVPWYPITQ) [compound 140]	3	477
141 (LRVTFHRVKPTLQRE) [compound 141]	2	830
142 (SGRVILWTTLRLCIL) [compound 142]	1	20
143 (VVRKYWTFTNPNRIL) [compound 143]	3	16876
144 (TFDVRQFVFDNARLV) [compound 144]	6	13736
145 (VRGGIVENKSVSSVV) [compound 145]	5	2691
146 (GNLQVTYVRHYLKNH) [compound 146]	4	655
147 (AVAFLNYSSSSSAVS) [compound 147]	3	2151
148 (AGLMMMRRMRRAPAE) [compound 148]	1	490
149 (CDLPLVSSRLLPETS) [compound 149]	1	123
150 (CEIKPYVVNPVVATA) [compound 150]	3	2583
151 (DPLLRLSQVAGSGRR) [compound 151]	2	2067
152 (LPLCSTARLRLAPRR) [compound 152]	1	467
153 (RATGNFRSTSLYAAV) [compound 153]	3	4220
154 (RCCTLRFRRRCRARC) [compound 154]	2	713
155 (MSATRHHRCCTLRFR) [compound 155]	1	277
156 (RVFCLSADWIRFLSL) [compound 156]	2	846
